From patent publication US7410974B2, “Halogenated Quinazolinyl nitrofurans as antibacterial agents” (Ulysses Pharmaceutical Products, Inc., priority 2003, dated 2008)
In brackets after ≈: the same amount, converted by molar mass. Like-named read-outs stand apart in the source and are kept apart here.

What was measured:
[1] = tested on: S. aureus ATCC 29213; test: MIC broth microdilution (NCCLS); assay type: cell-based, Staphylococcus aureus; settings: Staphylococcus aureus, ATCC29213; S. aureus ATCC 29213; read-out: MIC
Experimental: (§1) Minimal Inhibitory Concentration (MIC) Determination. Bacteria (primary strain panel, TABLE 1). Susceptibility tests were performed following the recommendations from the National Committee for Clinical Standards (NCCLS). The MICs were determined by a broth microdilution technique using a final volume of 100 μl of cation-adjusted Mueller Hinton Broth (MHBCA) and a bacterial inoculum of 10^5-10^6 Colony Forming Units (CFU)/ml. The inocula were verified and precisely determined by applying 10-μl drops of 10-fold dilutions onto Triptic Soy Agar plates. The CFU were counted after an incubation of 24 h at 35° C. Any experiment showing an inoculum that was more or less than 10^5-10^6 CFU/ml was rejected. Control antibiotics and test compounds were prepared at a concentration equivalent to 2-fold the highest desired final concentration. Compounds were then diluted directly in the 96-well microtiter plates by serial 2-fold dilutions using a multichannel pipette. Microtiter plates were incubated during 24 h at 35° C. and growth was recorded by using a microtiterplate reader at 650 nm as well as by visual observation. The MIC was defined as the lowest concentration of compound yielding no visible growth. […] Fastidious bacteria. The medium used for Listeria monocytogenes, Neisseria meningitidis, and Campylobacter jejuni was MHBCA containing 2% laked horse blood. The medium used for Haemophilus influenzae and Branhamella (Moraxella) catarrhalis was HTM as recommended by the NCCLS. Cultures of these fastidious bacteria were incubated at 35° C. in a 5% CO2 atmosphere. […] The medium used for Bacteroides fragilis was Wilkins Chalgren broth and growth was allowed under an anaerobic atmosphere at 35° C. for 48 hours.

[2] = tested on: S. aureus MRSA COL; test: MIC broth microdilution (NCCLS); assay type: cell-based, Staphylococcus aureus; settings: S. aureus MRSA COL
Experimental: as §1, with “hours. […]” for “hours.”

[3] = tested on: S. epidermidis ATCC 12228; test: MIC broth microdilution (NCCLS); assay type: cell-based, Staphylococcus epidermidis; settings: Staphylococcus epidermidis, ATCC12228; S. epidermidis ATCC 12228; read-out: MIC
Experimental: as §1

[4] = tested on: S. saprophyticus ATCC 15305; test: MIC broth microdilution (NCCLS); assay type: cell-based, Staphylococcus saprophyticus; settings: Staphylococcus saprophyticus, ATCC15305; S. saprophyticus ATCC 15305; read-out: MIC
Experimental: as §1

[5] = tested on: E. faecalis ATCC 29212; test: MIC broth microdilution (NCCLS); assay type: cell-based, Enterococcus faecalis; settings: Enterococcus faecalis, ATCC29212; E. faecalis ATCC 29212; read-out: MIC
Experimental: as §1

[6] = tested on: E. faecium ATCC 35667; test: MIC broth microdilution (NCCLS); assay type: cell-based, Enterococcus faecium; settings: Enterococcus faecium, ATCC35667, E. faecium ATCC 35667; read-out: MIC
Experimental: as §1

[7] = tested on: E. coli ATCC 25922; test: MIC broth microdilution (NCCLS); assay type: cell-based, Escherichia coli; settings: Escherichia coli, ATCC25922, E. coli ATCC 25922 (Reference); read-out: MIC
Experimental: as §1

[8] = tested on: A. baumannii ATCC 19606; test: MIC broth microdilution (NCCLS); assay type: cell-based, Acinetobacter baumannii; settings: Acinetobacter baumannii, ATCC19606, read-out: MIC
Experimental: as §1

[9] = tested on: Y. enterocolytica ATCC 23715; test: MIC broth microdilution (NCCLS); assay type: cell-based, Yersinia enterocolytica; settings: Yersinia, ATCC23715, read-out: MIC
Experimental: as §1

[10] = tested on: C. jejuni ATCC 33291; test: MIC broth microdilution (NCCLS), fastidious bacteria; assay type: cell-based; settings: Campylobacter jejuni, ATCC33291
Experimental: as §1

[11] = tested on: B. fragilis ATCC 25285; test: MIC broth microdilution (NCCLS), anaerobic; assay type: cell-based; settings: Bacteroides fragilis, ATCC25285, 48 h
Experimental: as §1

[12] = tested on: S. saprophyticus ATCC 15305; test: Minimal Bactericidal Concentration (MBC); assay type: cell-based; settings: Staphylococcus saprophyticus, ATCC15305; S. saprophyticus ATCC 15305; 99.9% killing; read-out: MBC
Experimental: (§2) Minimal Bactericidal Concentration (MBC). After the microtiter plates were read for the determination of the MIC, a 10-μl sample of each clear well (at least 5 wells without visible growth) was applied onto TSA plates for viable counts determination.
(§3) Petri dishes were incubated at 35° C. for exactly 24 h and bacterial colonies were counted.

[13] = tested on: L. monocytogenes ATCC 13932; test: MIC broth microdilution (NCCLS), fastidious bacteria; assay type: cell-based; settings: Listeria monocytogenes, ATCC13932, MHBCA with 2% laked horse blood, 5% CO2
Experimental: as §1

[14] = tested on: M. smegmatis ATCC 19420; test: as above; assay type: cell-based, Mycobacterium smegmatis; settings: Mycolicibacterium smegmatis, ATCC19420, read after 48 hours
Experimental: as §1

[15] = tested on: MRSA strain Sa211c; test: MIC broth microdilution, antibiotic resistant strain panel; assay type: cell-based, Staphylococcus aureus; settings: Staphylococcus aureus; multi-resistant MRSA strain Sa211c; read-out: MIC
Experimental: as §1
(§4) Finally, compounds were also tested against populations of various clinical strains (antibiotic resistant strain panel, TABLE 1).

[16] = tested on: MRSA strain Sa212c; test: as above; assay type: cell-based, Staphylococcus aureus; settings: Staphylococcus aureus; multi-resistant MRSA strain Sa212c; read-out: MIC
Experimental: as §1, §4

[17] = tested on: MRSA strain Sa220c; test: as above; assay type: cell-based, Staphylococcus aureus; settings: Staphylococcus aureus; multi-resistant MRSA strain Sa220c; read-out: MIC
Experimental: as §1, §4

[18] = tested on: MRSA strain Sa224c; test: as above; assay type: cell-based, Staphylococcus aureus; settings: Staphylococcus aureus; multi-resistant MRSA strain Sa224c; read-out: MIC
Experimental: as §1, §4

[19] = tested on: MRSA strain Sa228c; test: as above; assay type: cell-based, Staphylococcus aureus; settings: Staphylococcus aureus; multi-resistant MRSA strain Sa228c; read-out: MIC
Experimental: as §1, §4

[20] = tested on: MRSA strain Sa234c; test: as above; assay type: cell-based, Staphylococcus aureus; settings: Staphylococcus aureus; multi-resistant MRSA strain Sa234c; read-out: MIC
Experimental: as §1, §4

[21] = tested on: MRSA strain Sa248c; test: as above; assay type: cell-based, Staphylococcus aureus; settings: Staphylococcus aureus; multi-resistant MRSA strain Sa248c; read-out: MIC
Experimental: as §1, §4

[22] = tested on: MRSA strain Sa249c; test: as above; assay type: cell-based, Staphylococcus aureus; settings: Staphylococcus aureus; multi-resistant MRSA strain Sa249c; read-out: MIC
Experimental: as §1, §4

[23] = tested on: MRSA strain Sa253c; test: as above; assay type: cell-based, Staphylococcus aureus; settings: Staphylococcus aureus, MRSA
Experimental: as §1, §4

[24] = tested on: E. coli ATCC 25922; test: Minimal Bactericidal Concentration (MBC); assay type: cell-based; settings: Escherichia coli, ATCC25922, 99.9% killing
Experimental: as §2, §3

[25] = Staphylococcus aureus, MRSA, read-out: MIC

C[C@@H](O)[C@H]1C(=O)N2C(C(=O)O)=C(SCCN=CN)C[C@H]12 [Imipenem]
MIC [1]: 0.015 µg/mL (≈ 0.0501 µM)
MIC [2, 25]: 16 µg/mL (≈ 53.4 µM)
MIC [3]: 0.008 to 0.015 µg/mL (≈ 0.0267 to 0.0501 µM)
MIC [4]: 0.03 µg/mL (≈ 0.1 µM)
MIC [5]: 0.5 µg/mL (≈ 1.67 µM)
MIC [6]: 2 µg/mL (≈ 6.68 µM)
MIC [7]: 0.12 µg/mL (≈ 0.401 µM)
MIC [8]: 16 µg/mL (≈ 53.4 µM)
MIC [9]: 0.5 µg/mL (≈ 1.67 µM)
MIC [10]: 0.125 µg/mL (≈ 0.418 µM)
MIC [11]: 0.125 to 0.5 µg/mL (≈ 0.418 to 1.67 µM)
MBC [12]: 0.03 to 0.06 µg/mL (≈ 0.1 to 0.2 µM)

CCn1cc(C(=O)O)c(=O)c2cc(F)c(N3CCNCC3)cc21 [Norfloxacin]
MIC [1]: 1 µg/mL (≈ 3.13 µM)
MIC [2]: 1 µg/mL (≈ 3.13 µM)
MIC [2, 25]: 0.5 to 1 µg/mL (≈ 1.57 to 3.13 µM)
MIC [3]: 0.5 µg/mL (≈ 1.57 µM)
MIC [4]: 2 µg/mL (≈ 6.26 µM)
MIC [5]: 4 µg/mL (≈ 12.5 µM)
MIC [6]: 16 µg/mL (≈ 50.1 µM)
MIC [7]: 0.03 µg/mL (≈ 0.0939 µM)
MIC [13]: 0.008 µg/mL (≈ 0.0251 µM)
MIC [14]: 2 µg/mL (≈ 6.26 µM)
MIC [15]: > 32 µg/mL
MIC [16]: > 32 µg/mL
MIC [17]: > 32 µg/mL
MIC [18]: > 32 µg/mL
MIC [19]: > 32 µg/mL
MIC [20]: > 32 µg/mL
MIC [21]: 32 µg/mL (≈ 100 µM)
MIC [22]: 32 µg/mL (≈ 100 µM)
MIC [23]: > 128 µg/mL
MBC [24]: 0.06 µg/mL (≈ 0.188 µM)
MBC [12]: 4 µg/mL (≈ 12.5 µM)
